Measurements: US20260007639A1, “COMPOUNDS FOR THE TREATMENT OF NEUROMUSCULAR DISORDERS” (NMD PHARMA A/S, priority 2017, published 2026)

How the values were obtained:
rat soleus muscles [1] = experiment: Recovery of force in isolated rat soleus nerve-muscle preparations after 115 nM tubocurarine, 50 μM compound (Table 8); conditions: 40 mins exposure
Method: Force traces from a representative muscle stimulated to contract in 1) control condition before addition of neuromuscular blocking agent, 2) the force response to stimulation after 90 minutes incubation with Tubocurarine. […] The traces presented in FIG. 12A (1, 2, 3), correspond to the dotted lines in FIG. 12B, respectively.
Recovery of force is quantified as the percentage of the force prior to tubocurarine that is recovered by the compound.
The current invention relates to compounds that inhibit CIC-1 ion channels and increase muscle excitability and thereby improve muscle function in clinical conditions where muscle activation is failing. Such conditions result in loss of contractile function of skeletal muscle, weakness and excessive fatigue. In this series of experiments the compounds were tested for their ability to restore contractile function of isolated rat muscle when the neuromuscular transmission had been compromised akin to neuromuscular disorders.
Experimentally, soleus muscles from 4-5 wk old rats were isolated with the motor nerve remaining attached. The nerve-muscle preparations were mounted in experimental setups that enabled electrical stimulation of the motor nerve. Stimulation of the motor nerve led to activation of the muscle fibres and ensuing force production that was recorded.
After mounting the nerve-muscle preparation in the experimental setup, the contractile function of the muscle was initially assessed under the control conditions (FIG. 2A). […] The experimental condition mimics the failing neuromuscular transmission in a range of neuromuscular disorders. After addition of tubocurarine the contractile force declined over the next 90 mins to 10-50% of the control force. 50 μM of the test compound was then added and the contractile force recovered despite the continued presence of tubocurarine. To quantify the ability of the compound to restore force the percentage of the initial force that was restored was determined after 40 mins of compound exposure (FIG. 2B) and the point increase is reported in Table 8.

CIC-1 channels = target: T1, CIC-1 channels (Rattus norvegicus, UniProt P35524); experiment: Electrophysiological measurement of compound inhibition of CIC-1 (Gm) in rat soleus muscle fibres: EC50 (Table 7)
T1 sequence (P35524 1-994): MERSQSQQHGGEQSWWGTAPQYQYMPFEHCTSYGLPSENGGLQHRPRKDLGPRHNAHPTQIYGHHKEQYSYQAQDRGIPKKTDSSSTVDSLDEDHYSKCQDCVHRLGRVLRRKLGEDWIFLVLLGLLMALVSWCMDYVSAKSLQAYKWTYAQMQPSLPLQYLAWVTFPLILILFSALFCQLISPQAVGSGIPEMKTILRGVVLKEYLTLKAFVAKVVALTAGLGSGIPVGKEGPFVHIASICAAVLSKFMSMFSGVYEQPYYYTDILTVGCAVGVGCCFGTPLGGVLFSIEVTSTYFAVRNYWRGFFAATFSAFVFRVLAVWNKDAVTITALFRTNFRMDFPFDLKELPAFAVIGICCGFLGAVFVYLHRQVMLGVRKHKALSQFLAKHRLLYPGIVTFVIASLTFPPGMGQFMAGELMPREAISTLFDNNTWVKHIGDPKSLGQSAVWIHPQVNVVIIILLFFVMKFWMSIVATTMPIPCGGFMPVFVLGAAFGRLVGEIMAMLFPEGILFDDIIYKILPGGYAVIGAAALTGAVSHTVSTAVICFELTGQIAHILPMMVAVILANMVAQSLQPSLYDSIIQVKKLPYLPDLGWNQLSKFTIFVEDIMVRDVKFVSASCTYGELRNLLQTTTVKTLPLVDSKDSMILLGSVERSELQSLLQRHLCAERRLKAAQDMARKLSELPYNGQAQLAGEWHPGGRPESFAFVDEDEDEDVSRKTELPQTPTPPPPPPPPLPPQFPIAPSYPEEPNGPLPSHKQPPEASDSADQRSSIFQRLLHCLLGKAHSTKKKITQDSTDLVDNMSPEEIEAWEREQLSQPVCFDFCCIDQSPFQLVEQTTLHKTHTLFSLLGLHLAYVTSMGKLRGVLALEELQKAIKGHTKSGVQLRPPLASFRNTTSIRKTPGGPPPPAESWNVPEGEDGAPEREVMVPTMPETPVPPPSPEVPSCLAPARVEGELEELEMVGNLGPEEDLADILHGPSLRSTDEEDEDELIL

human CIC-1 channels = target: T2, human CIC-1 channels (Homo sapiens, UniProt P35523); experiment: Automated patch-clamp on human CIC-1 expressed in CHO cells: shift of half activation voltage ΔV1/2; format: cell-based; conditions: compound in intracellular solution vs control cell patches; CHO cells expressing human CIC-1
T2 construct: host or cells: CHO (Chinese hamster ovary) cells constitutively expressing human ClC-1
T2 sequence (P35523 whole entry): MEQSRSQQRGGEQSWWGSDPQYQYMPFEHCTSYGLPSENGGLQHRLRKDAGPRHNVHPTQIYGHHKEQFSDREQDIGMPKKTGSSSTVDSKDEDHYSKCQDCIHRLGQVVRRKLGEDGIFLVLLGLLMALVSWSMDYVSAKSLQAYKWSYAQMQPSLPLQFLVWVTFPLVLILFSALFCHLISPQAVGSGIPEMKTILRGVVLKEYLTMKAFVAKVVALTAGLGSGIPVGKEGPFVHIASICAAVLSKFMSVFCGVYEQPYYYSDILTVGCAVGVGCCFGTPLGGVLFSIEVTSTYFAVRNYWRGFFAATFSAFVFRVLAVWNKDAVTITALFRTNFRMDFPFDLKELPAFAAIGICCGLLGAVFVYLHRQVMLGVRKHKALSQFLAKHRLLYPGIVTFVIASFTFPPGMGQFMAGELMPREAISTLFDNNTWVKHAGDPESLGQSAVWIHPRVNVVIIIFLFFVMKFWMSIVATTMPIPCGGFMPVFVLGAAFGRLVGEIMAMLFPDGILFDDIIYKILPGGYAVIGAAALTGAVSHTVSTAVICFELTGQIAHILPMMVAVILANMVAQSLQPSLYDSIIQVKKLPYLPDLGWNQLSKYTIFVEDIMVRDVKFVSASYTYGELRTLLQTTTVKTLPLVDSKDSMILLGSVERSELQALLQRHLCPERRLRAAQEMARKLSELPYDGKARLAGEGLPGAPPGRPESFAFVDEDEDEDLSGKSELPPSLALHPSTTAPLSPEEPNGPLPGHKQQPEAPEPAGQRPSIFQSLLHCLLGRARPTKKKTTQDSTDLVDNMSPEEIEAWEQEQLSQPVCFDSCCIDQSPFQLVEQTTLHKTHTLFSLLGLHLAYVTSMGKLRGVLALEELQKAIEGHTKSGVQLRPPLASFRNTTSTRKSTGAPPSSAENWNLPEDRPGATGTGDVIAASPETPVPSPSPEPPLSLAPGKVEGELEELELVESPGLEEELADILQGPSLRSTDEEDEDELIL
Method: FIGS. 13A-13B: FIG. 13A illustrates the voltage protocol used to evoke currents in whole cell patches of CHO cells expressing human CIC-1 channels.
Experiments were performed using an automated patch clamp system that allowed high throughput testing of whole cell patches together with both intracellular and extracellular addition of compound.
Automated whole cell patch clamp experiments were performed with the Qpatch 16 system (Sophion Bioscience, Ballerup, Denmark) at room temperature. Data acquisition and analysis were performed in the Qassay software (ver. 5.6, Odense).
To evoke CIC-1 currents in whole cell patches, the membrane potential was initially stepped from a holding potential of −30 mV to +60 mV for 100 ms and then to various test voltages (sweeps) ranging from +120 mV to −140 mV in steps of 20 mV for 300 ms. To obtain tail currents, the membrane potential was stepped to −100 mV after each test voltage for 300 ms and then relaxed to −30 mV for 2 sec between sweeps (FIG. 3).
I/V relationships for whole cell instant and steady state current amplitudes were obtained by plotting average current densities at the beginning and at the end of the 300 ms step against the membrane potential (FIG. 4).
In order to determine the relative overall open probability (Po), the instantaneous tail currents were normalized to the maximal tail current obtained following the most positive voltage step and plotted against the test voltage. Plots of normalized tail currents from each whole cell patch were then fitted to a Boltzmann function allowing determination of half activation voltages (V1/2, FIG. 5).
For automated patch clamp experiments extracellular solutions contained: 2 mM CaCl2), 1 mM MgCl2, 10 mM HEPES, 4 mM KCl, 145 mM NaCl, 10 mM Glucose, pH adjusted to 7.4 with NaOH (2 M). Osmolality adjusted to ˜320 using sucrose.
Intracellular solutions contained: 80 mM CsF, 60 mM CsCl, 5/1 mM KOH/EGTA, 10 mM HEPES, 10 mM NaCl, pH adjusted to 7.2 with NaOH (2 M). Osmolality adjusted to ˜320 mOsm using sucrose.
Cells used in patch clamp experiments were Chinese hamster ovary cells (CHO) constitutively expressing human CIC-1 channels. The amino acid sequence encoded by the cDNA used to create this cell line was identical to the translated sequence for GenBank accession number NM_000083.2. Cells were produced by Charles River (Catalogue CT6175, Cleveland OH, USA) in a cryopreserved format. Experiments were performed on the cells directly after thawing (3×10^6 cells used in each experiment).
To evaluate the compound effect on CIC-1, when applied directly to the intracellular side of the cell membrane, the half activation voltage, V1/2, was determined from whole cell patches with compound added to the intracellular solution and then compared to V1/2 determined from control cell patches with only vehicle added to the intracellular solution. Additionally, the effect of extracellular added compound was evaluated by determine V1/2 and steady state current amplitudes before and after exchanging the extracellular solution to contain compound.
The difference in half activation voltage of CIC-1 channels, ΔV1/2, was determined as the difference between the cell patches treated intracellularly with compound and control cells patches and is reported in Table 4 below. A positive shift in ΔV 1/2 is reflecting CIC-1 channel inhibition by the tested compound. P-values of <0.05 is considered significant.

female Lewis rats = experiment: In situ isometric hindlimb force in anaesthetised rats with neuromuscular transmission partially inhibited by Cisatracurium; format: in vivo, rat; conditions: 80 Hz stimulation, Cisatracurium infusion
Method: Isometric hindlimb force was measured in 12-week old female Lewis rats in the presence and absence of compound.
Rats were placed under anesthesia with isoflurane (2-4%), intubated and subsequently connected to a micro ventilator (Microvent 1, Hallowell EMC, US). Two stimulation electrodes were inserted through the skin to stimulate the sciatic nerve. A small incision was made proximal to the ankle, to expose the Achilles tendon, which was tied by cotton string, and connected to a force transducer (Fort250, World Precision Instruments) with adjustable position (Vernier control). The Achilles tendon was then cut distal to the attached cotton string. The rat was placed on a heated pad, and to prevent movement artefacts from contraction of the ankle dorsiflexors, the foot was fixated by tape on a footplate.
Muscle contractile properties were assessed by applying an electrical current (under supramaximal voltage conditions) to the nerve and recording the force generated by the muscle. The muscle was stretched until maximal force was obtained, when assessed by 2 Hz stimulation. Isometric force was measured every 30 seconds at 12 Hz (Twitch), 10 pulses, and at every 5 minutes at 80 Hz (Tetanic) for 1 second (80 pulses). This stimulation pattern was employed throughout the experiment, expect in few cases where 80 Hz stimulation was replaced by 12 Hz (10 pulses). […] When the level of neuromuscular inhibition was stable, the test article was injected i.v. at the chosen concentration. The effect of test article was assessed on its ability to increase force generated from the stimulation pattern applied. The effect was assessed in the ability to increase force per se (tetanic, 80 Hz, stimulation), and the ratio between individual twitch peaks (12 Hz stimulation). The effect was monitored for at least 1 hour after injection of test article. In addition, the time from injection of test article to maximal effect on force (both twitch and tetanic) was noted and the time for the effect to disappear (return to baseline), if possible. When appropriate the infusion of neuromuscular blocking agent was ceased, with the stimulation pattern continued, and the return of force to control levels was monitored. Animals were sacrificed by cervical dislocation while still fully sedated.

rat soleus muscles [2] = experiment: Recovery of nerve-stimulated force in isolated rat soleus muscles with ACh receptors inhibited by 2 μM rocuronium; conditions: 2 μM rocuronium alone; 8 muscles
Method: In a separate series of experiments with 8 isolated rat soleus muscles, ACh receptors were inhibited using 2 μM rocuronium, which is a clinically used neuromuscular blocking agent. Under these conditions the nerve-stimulated force was reduced to 51±5% of force before rocuronium. […] This illustrates the potential of these compounds to be used as reversal agents.

| EC50 (CIC-1 channels) [µM] | Δ1/2 (mV) (human CIC-1 channels) | Compound | Point increase (%) of initial force that was restored (rat soleus muscles [1]) [%] | average increase in tetanic force (female Lewis rats; 40.0 mg/kg i.v.) [%] | average increase in tetanic force (female Lewis rats; 26.5 mg/kg i.v.) [%] | nerve-stimulated force, % of force before rocuronium (rat soleus muscles [2]) [%] |
| --- | --- | --- | --- | --- | --- | --- |
| 4.3 | 7.2 | CC[C@H](Oc1ccc(Br)cc1-c1ccon1)C(=O)O [Compound A-2, (2S)-2-[4-bromo-2-(1,2-oxazol-3-yl)phenoxy]butanoic acid] | 27 |  |  |  |
| 1.8 ± 1.1 | 14.1 | C[C@H](Oc1ccc(Br)cc1-c1ccon1)C(=O)O [Compound A-16, (2S)-2-[4-bromo-2-(1,2-oxazol-3-yl)phenoxy]propanoic acid] | 48 |  |  |  |
| 7.5 | 9.3 | C[C@H](Oc1ccc(Br)cc1-c1ccno1)C(=O)O [Compound A-22, (2S)-2-[4-bromo-2-(1,2-oxazol-5-yl)phenoxy]propanoic acid] | 27 |  |  |  |
| 4.6 | 15.1 | O=C(O)[C@H](CC1CC1)Oc1ccc(Br)cc1-c1ccon1 [Compound A-33, (2S)-2-[4-bromo-2-(1,2-oxazol-3-yl)phenoxy]-3-cyclopropylpropanoic acid] | 35 |  |  |  |
| 2 | 8.1 | C[C@H](Oc1ccc(Cl)cc1-c1ccon1)C(=O)O [Compound A-34, (2S)-2-[4-chloro-2-(1,2-oxazol-3-yl)phenoxy]propanoic acid] | 43 |  |  |  |
| 4.3 |  | O=C(O)[C@H](CC1CC1)Oc1ccc(Cl)cc1-c1ccon1 [Compound A-41, (2S)-2-[4-chloro-2-(1,2-oxazol-3-yl)phenoxy]-3-cyclopropylpropanoic acid] | 25 | 36.4 |  |  |
| 3.2 | 6.8 | C[C@H](Oc1ccc(Br)cc1-c1cocn1)C(=O)O [Compound A-42, (2S)-2-[4-bromo-2-(1,3-oxazol-4-yl)phenoxy]propanoic acid] | 14 |  |  |  |
|  | 12.8 | C[C@H](Oc1ccc(Br)cc1-c1nncs1)C(=O)O [Compound A-65, (2S)-2-[4-bromo-2-(1,3,4-thiadiazol-2-yl)phenoxy]propanoic acid] |  |  |  |  |
| 8.1 ± 1.2 |  | CCOC[C@H](Oc1ccc(Br)cc1-c1ccon1)C(=O)O [Compound A-81, (2S)-2-[4-bromo-2-(1,2-oxazol-3-yl)phenoxy]-3-ethoxypropanoic acid] | 45 |  | 52.9 |  |
|  | 10.3 | C[C@H](Oc1ccc(Cl)cc1-c1ccsn1)C(=O)O [Compound A-83, (2S)-2-[4-chloro-2-(1,2-thiazol-3-yl)phenoxy]propanoic acid] |  |  |  |  |
|  |  | C=CC[N+]1([C@H]2C[C@H]3[C@@H]4CC[C@H]5C[C@H](O)[C@@H](N6CCOCC6)C[C@]5(C)[C@H]4CC[C@]3(C)[C@H]2OC(C)=O)CCCC1 [rocuronium, reference compound] |  |  |  | 51±5 |
